According to US20250000834A1, “COMPOSITIONS AND METHODS FOR TARGETING GPCR FOR THE PREVENTION AND TREATMENT OF PAIN” (Duke University, priority 2021, published 2025):

Test system: neuron-glia mixed cultures from DRG
Assay: IL-1β release in SGC-neuron co-cultures from DRG (ELISA)
Assay type: cell-based, mouse
Settings: 100 nM, cells from WT mice, 1 μM paclitaxel 24 h
Description: SGC and neuron co-culture: DRG were collected from wild-type (WT) or knock-out (KO) mice (8 weeks male) and incubated in 1 mg/ml Collagenase/Dispase (Roche Diagnostics, Madison, WI, USA) at 37° C. for 60 min, with agitation at 100 revolutions per minute (RPM) and then followed by incubation in 0.05% trypsin/EDTA for 10 min. The digestion enzymes were prepared in Dulbecco's modified Eagle medium/F12 with GlutaMAX (ThermoFisher, Waltham, MA). After incubation of 0.1% trypsin inhibitor and centrifugation (300 G), the cell pellet was gently triturated in a neurobasal medium containing […]. Dissociated DRG cells were seeded on non-coated culture dishes for 4 hrs. SGC and neurons were included for co-culture by hand-shaking of the culture flasks gently for 5 to 10 min and then resuspended by replacing with a new neurobasal medium. The attached glial-like cells were cultured in the DMEM/F12 medium containing 10% fetal bovine serum and 1% streptomycin/penicillin to promote cell growth and inhibition of differentiation. After 2 to 6 days, the glial-like cells were differentiated by application of the serum-free neural basal medium. […]

CC/C=C\C/C=C\C[C@H](O)\C=C/C=C/C=C/[C@H](O)C/C=C\CCC(=O)O [MaR1, Maresin 1]
effect on paclitaxel-induced IL-1β secretion: blocked
